From patent US20240182382A1, “ALIPHATIC 18F-RADIOLABELING OF A TETRAZINE PRECURSOR” (UNIVERSITY OF COPENHAGEN, priority 2021, published 2024)

Experiments:
[1] = test system: CC49-TCO; test: Ex vivo blocking assay: blocking of [111In]Tz-Tg binding to CC49-TCO in LS174T tumor xenografts; design: species or system nude BALB/c mice; settings: for Normalized Tumor blocking effect: change in tumor uptake of [111In]Tz-Tg 22 h p.i., Tz administered 1 h prior, normalized to non-blocked control, mean from n = 3 mice/group
Experimental: FIG. 3 show a schematic display of the blocking assay. The blocking effect of non-radiolabeled Tz was determined as the change in tumor uptake of [111 1n]Tz-Tg 22 h p.i. Each Tz was administered 1 h prior to [111 1n]Tz-Tg and the uptake normalized to a group of animals were no blocking was performed (control).
The inventors have recently developed a blocking assay that allows to assess the in vivo ligation performance of unlabeled tetrazine derivatives. This assay omits time-consuming development of radiolabeled tetrazines for every ligand to be tested. In this assay, binding of [^111In]Tz-Tg (see structure in example 7), a literature described pretargeted imaging agent, is blocked in vivo to the pretargeting vector CC49-TCO (described in Stéen, J.; Jørgensen, J. T.; Christoph, D.; Battisti, U. M.; Nørregaard, K.; Edem, P.; Bratteby, K.; Shalgunov, V.; Martin, W.; Svatunek, D.; Poulie, C. B. M.; Hvass, L.; Simon, M.; Thomas, W.; Rossin, R.; Robillard, M.; Kristensen, J. L.; Mikula, H.; Kjaer, A.; Herth, M. Lipophilicity and Click Reactivity Determine the Performance of Bioorthogonal Tetrazine Tools in Pretargeted in Vivo Chemistry; 2020 Dec. 24, 2020.), which was administered 72 h prior. The blocking effect of the unlabeled tetrazine derivatives is afterwards quantified via an ex vivo biodistribution study and normalized to the binding of [^111In]Tz-Tg determined without any blocking.
All animal studies were approved by the Danish Animal Welfare Council, ministry of Justice. Five weeks old female nude BALB/c mice (Charles River, Sulzfeld, Germany) were allowed to acclimatize for one week with access to water and chow ad libitum. Human colon cancer cell line (LS174T; obtained from ATCC) was cultured in minimum essential medium (MEM) supplemented with 10% fetal bovine serum, 1% L-glutamine, 1% sodium pyruvate, 1% non-essential amino acids, and 1% penicillin-streptomycin at 37° C. and 5% CO2. Cells were harvested by trypsinization at a confluence of 70-90% and subcutaneous tumors were established in the left flank of the 6 weeks old animals by inoculation of 5×10^6 LS174T cells resuspended in sterile PBS (100 μL) and allowed to grow for 7-10 days. Tumors were measured using a caliper and the volume calculated using the formula volume=1/2 (length×width 2).
Tumor-bearing animals were matched in groups based on their tumor volume (tumor volumes of ˜100-300 mm^3, n=3 in each group) and were administered 100 μg/100 μL of CC49-TCO (100 μg/100 μL, ˜7 TCO/mAb) per mouse. After 3 days, animals were injected with non-radioactive Tz (10-20 nmol). After 1 h, they were administered with IniTz-Tg (˜13 MBq/100 μL, 1-2 nmol) via the tail vein. [^111In]Tz-Tg was obtained and radiolabeled as previously described in Borjesson, P. K.; Jauw, Y. W.; de Bree, R.; Roos, J. C.; Castelijns, J. A.; Leemans, C. R.; van Dongen, G. A.; Boellaard, R. Radiation dosimetry of 89 Zr-labeled chimeric monoclonal antibody U36 as used for immuno-PET in head and neck cancer patients. J Nucl Med 2009, 50, 1828-36. The mice were euthanized after 22 h and tumor, blood, heart, lung, liver, spleen, kidney, and muscle were resected. All tissues were weighted, and the radioactivity measured in a gamma counter (Wizard2, Perkin Elmer) and data was corrected for decay, tissue weight and injected amount of radioactivity. FIG. 3 illustrate the workflow of the blocking assay.

[2] = Bench stability by analytical HPLC; type: physicochemical
Experimental: The stability of [^18F]13 and it precursor (28) was investigated by analytical HPLC. [^18F]13 was stable for at least 4 hours and therefore, sufficient for most applications (FIG. 5A). […] The process could be prevented storing the precursor (28) at −20° C. as a solid—at least for 3 months (FIG. 5B).

[3] = Reaction kinetics of tetrazines with TCO (stopped-flow, pseudo-first-order); type: physicochemical; settings: Second order rate constants with TCO at 37° C. in PBS
Experimental: Reaction kinetics of tetrazines with standard TCO were determined using pseudo-first-order measurements with an excess of the TCO compound in PBS (pH=7.4) at 37.0±0.1° C. following the decrease of tetrazine absorbance at 535 nm. Measurements were performed in triplicates using an SX20 stopped-flow photometer (Applied Photophysics, UK) equipped with a 535 nm LED light source. Data analysis was performed using Prism 6 (Graphpad) to determine the observed rate constants which were converted into secondorder rate constants through dividing by the TCO concentration.
Second-order rate constants for the reaction with TCO in PBS at 37° C. were determined by pseudo-first order measurements in a SX20 stopped flow photometer (Applied Photophysics).

[4] = test system: CC49-TCO; test: Pretargeted PET/CT imaging in LS174T tumor xenograft bearing mice; type: in vivo, Balb/c nude mice; settings: for tumor-to-blood (T/B) ratio: 1 h; for tumor uptake: mice pretreated with CC49-TCO 72 h prior; for tumor-to-muscle ratio in comparison: compared to [64Cu]Cu-NOTA-PEG7-H-Tz, [111In]Tz-Tg and ZZ; for tumor-to-muscle (T/M) ratio: image derived, 1 h p.i., animals pretargeted with CC49-TCO; for pharmacokinetics: pretargeted experiments in mice
Experimental: The ability of [^18F]13 and [^18F]14 to be used as a pretargeting imaging agents was evaluated using a similar pretargeted setup that was used for the ex vivo blocking study in example 7. Mice were administered with CC49-TCO 72 h prior to administration of [^18F]13 or [^18F]14 where after PET/CT scanning was performed 1 h later. Control animals were injected with unconjugated mAb CC49 instead of CC49-TCO, but were otherwise treated exactly the same. After PET/CT scanning, animals were euthanized and an ex vivo biodistribution performed.
A) Pretargeted imaging of [^18F]13: Pretargeted imaging of [^18F]13 as tested in vivo using the TAG-72 targeting antibody CC49 in human colorectal cancer xenograft tumors LS174T. Tumors were established in 7-8 week old Balb/c nude mice and after one week, the animals were injected i.v. with either 50 ug […] TCO-modified CC49 (CC49-TCO, ˜7 TCO/mAb), or non-modified CC49 (control) (n=4 per group). 72 hours later, ^18F-13 (1.74±0.319 (mean±SD) MBq/100 μL (55.3 GBq/μmol) were injected i.v., followed by PET/CT-scan (Inveon®, Siemens Medical Solutions), one hour post injection. PET data was acquired in an energy window of 350-650 KeV and a time resolution of 6 ns followed by a CT scan (360 projections, 65 kV, 500 pA and 400 ms). PET and CT images were aligned by rigid affine registration, after which 3D regions of interest (ROI) were created on the full CT tumor volume, as well as heart and muscle tissue to quantify uptake of [^18F]13 (FIG. 6). Additionally, selected organs were harvested for ex vivo biodistribution. The radioactivity in the tissues were determined using a gamma counter (Wizard 2 , Perkin Elmer). Data was corrected for decay, tissue weight and the injected dose of radioactivity. GraphPad Prism 9 (GraphPad Software) was used for statistical analyses and plotting data. Statistical difference between mean % ID/g values were analyzed using Welch's T-test. Results were considered significant when p<0.05.
B) Pretargeted imaging of [^18]14: LS174T xenografts were established in mice as previously described. When tumors reached a size of ˜100 mm3 animals were matched based on their tumor volume and divided into two groups (tumor volumes of, n=5/group), and injected iv with 50 μg in 100 μL of either CC49-TCO or CC49. After 72 h the animals were administered iv with [^18F ]14(4.74±1.39 MBq in 100 μL) and PET/CT (Inveon, Siemens Medical Solutions, USA) scanned 1 h later, using a PET acquisition time of 5 min, an energy window of 350-650 KeV and a time resolution of 6 ns;
followed by a continuous 360 projections/360° CT scan, acquired with a x-ray tube voltage of 65 kV, a tube anode current of 500 pA and an exposure time per projection of 400 ms (FIG. 8). Mice were anaesthetized breathing 3% sevoflurane (5% for induction) mixed in 35% O2 in N2 and during scans the body temperature of the mice was kept stable using a heating pad.
Signograms from PET scans were reconstructed using a 3-dimensional maximum a posteriori algorithm with correction for scatter and attenuation. The mean percentage of injected dose per grams (% ID/g) was determined by manually creating regions of interest (ROI) on co-registered PET/CT images (Inveon Research Workplace software, Siemens Medical Solutions, USA).

[5] = Tetrazine core reactivity test with TCO-PNP; type: physicochemical; settings: for tetrazine core after radiolabeling: analytical chromatogram before and after TCO-PNP addition
Experimental: • a) The reaction between [^18F]13 TCO-PNP was performed by mixing the formulated [^18F]13 (200 μL) with 5 μL of the commercially available TCO-PNP ester dissolved in DMF (5 mg/mL) in an analytical HPLC vial. The solution was gently shaken and left for 1 min before it was injected on the analytical HPLC for analysis. • b) The reaction between [^18F]14 and TCO-PNB was performed by mixing the formulated [^18F]14 (200 μL) with 5 μL of the commercially available TCO-PNB ester dissolved in DMF (5 mg/mL) in an analytical HPLC vial. The solution was gently shaken and left for 1 min before it was injected on the analytical HPLC for analysis.

O=C(O)C(F)(F)F.O=C(O)CN(CCF)Cc1cc(F)cc(-c2nncnn2)c1 [Compound 9, N-(carboxymethyl)-2-fluoro-N-(3-fluoro-5-(1,2,4,5-tetrazin-3-yl)benzyl)ethanaminium 2,2,2-trifluoroacetate]
Normalized Tumor blocking effect [1]: 76

O=C(O)C(F)(F)F.O=C(O)CN(CCF)Cc1cccc(-c2nncnn2)c1 [Compound 10, N-(3-(1,2,4,5-tetrazin-3-yl)benzyl)-N-(carboxymethyl)-2-fluoroethanaminium 2,2,2-trifluoroacetate]
Normalized Tumor blocking effect [1]: 75

O=C(O)C(F)(F)F.O=C(O)CN(CCF)Cc1ccc(-c2nncnn2)cc1F [Compound 11, N-(carboxymethyl)-2-fluoro-N-(2-fluoro-4-(1,2,4,5-tetrazin-3-yl)benzyl)ethanaminium 2,2,2-trifluoroacetate]
Normalized Tumor blocking effect [1]: 69

O=C(O)C(F)(F)F.O=C(O)CN(CCF)Cc1ccc(-c2nncnn2)cc1 [Compound 12, N-(4-(1,2,4,5-tetrazin-3-yl)benzyl)-N-(carboxymethyl)-2-fluoroethanaminium 2,2,2-trifluoroacetate]
Normalized Tumor blocking effect [1]: 69

O=C(O)C(F)(F)F.O=C(O)CN(CC(=O)O)Cc1ccc(-c2nncnn2)cc1OCCF [Compound 13, 1-Carboxy-N-(carboxymethyl)-N-(2-(2-fluoroethoxy)-4-(1,2,4,5-tetrazin-3-yl)benzyl) methanaminium 2,2,2-trifluoroacetate]
Normalized Tumor blocking effect [1]: 98

O=C(O)C(F)(F)F.O=C(O)CN(CC(=O)O)Cc1ccc(-c2nnc(-c3ccc(OCCF)cn3)nn2)nc1 [Compound 14, 1-Carboxy-N-(carboxymethyl)-N-((6-(6-(5-(2-fluoroethoxy)pyridin-2-yl)-1,2,4,5-tetrazin-3-yl)pyridin-3-yl)methyl)methanaminium 2,2,2-trifluoroacetate]
blocking effect ([1]; blocking of [111In]Tz-Tg binding to CC49-TCO in vivo): 99% | Normalized Tumor blocking effect [1]: 99

CC(C)(C)OC(=O)CN(CC(=O)OC(C)(C)C)Cc1ccc(-c2nncnn2)cc1OCCOS(=O)(=O)c1ccc([N+](=O)[O-])cc1 [Compound 28, Di-tert-butyl 2,2′-((2-(2-(((4-nitrophenyl)sulfonyl)oxy)ethoxy)-4-(1,2,4,5-tetrazin-3-yl)benzyl)azanediyl)diacetate]
stability of precursor ([2]; analytical HPLC): decomposed over time | time stable ([2]; dissolved (25 mg/mL) in DMSO and frozen at −20° C.): at least 3 months | time stable ([2]; stored at −20° C. as a solid): ≥ 3 months

O=C(O)CN(CC(=O)O)Cc1ccc(-c2nnc(-c3ccc(OCCF)cn3)nn2)nc1 [Tz-Tg, reference compound]
Normalized Tumor blocking effect [1]: 99 | Rate constant [3]: 73742 M⁻¹ s⁻¹

O=C(O)CN(CC(=O)O)Cc1ccc(-c2nncnn2)cc1OCC[18F] [[^18F]13]
Stability at r.t. over 4 hours ([2]; after 4 hours at r.t.): no signs of decomposition | time stable ([2]; formulated tracer at r.t., analytical HPLC): at least 4 hours | tumor-to-blood (T/B) ratio [4]: 1.2 | Uptake in tissues beside tumor and blood ([4]; PET/CT 1 h p.i.): low | tumor uptake, control ([4]; PET/CT 1 h p.i., control mice injected with unconjugated CC49 72 h prior, mean±S.E.M): 0.01±0.01 % ID/g | tumor uptake ([4]; PET/CT 1 h p.i., mean±S.E.M): 1.87±0.31 % ID/g | tumor-to-muscle ratio in comparison [4]: highest | tumor-to-muscle (T/M) ratio [4]: 20.1 | pharmacokinetics [4]: favorable | ability to react with TCO-PNP ([5]; after 4 hours at r.t.): quantitatively | tetrazine core after radiolabeling [5]: intact

O=C(O)CN(CC(=O)O)Cc1ccc(-c2nnc(-c3ccc(OCC[18F])cn3)nn2)nc1 [[^18F]14]
tumor-to-blood (T/B) ratio [4]: 0.8 | Uptake in muscle tissue ([4]; PET/CT 1 h p.i.): generally low | uptake in blood (heart used as a surrogate) ([4]; PET/CT 1 h p.i., CC49-TCO group): high | tumor uptake ([4]; PET/CT 1 h p.i., mean±S.E.M): 1.8±0.3 % ID/g | tumor-to-muscle ratio in comparison [4]: highest | tumor-to-muscle (T/M) ratio [4]: 9.0 | pharmacokinetics [4]: favorable | tetrazine core after radiolabeling [5]: intact
